{"source": "paper PMC10338316", "about": "“Functional and structural characterization of Streptococcus pneumoniae pyruvate kinase involved in fosfomycin resistance” (The Journal of Biological Chemistry, 2023)", "key": {"[1]": {"biological_target": "T1, SpPYK (Streptococcus pneumoniae, UniProt Q8DQ84)", "T1 construct": "gene pykF; recombinant, E. coli BL21(DE3) derivative, His60 Ni resin (tag details in supplement); homotetramer; single pyk gene", "assay": "X-ray crystal structure (FBP, PEP/FBP at […] Å, oxalate/FBP)", "conditions": "allosteric activator; effector binding site in the C domain"}, "[2]": {"biological_target": "T1, SpPYK", "assay": "lactate dehydrogenase coupled assay, NADH absorbance at […] nm", "assay_type": "biochemical", "conditions": "allosteric activator (modest), 2 mM G6P; PEP varied, 3 mM ADP, pH 7.5, 25 °C"}, "[3]": {"biological_target": "T1, SpPYK", "assay": "X-ray crystal structure (PEP; PEP/FBP at […] Å)", "assay_type": "binding", "conditions": "catalytic site, Mg2+ and K+"}, "[4]": {"biological_target": "T1, SpPYK", "assay": "X-ray crystal structure (oxalate; oxalate/FBP)", "assay_type": "binding", "conditions": "catalytic site; enolpyruvate analog; weak density for a second oxalate in the effector site"}, "[5]": {"system": "C=C(OP(=O)(O)O)C(=O)O", "assay": "purified protein", "conditions": "3 mM ADP, 10 mM MgCl2, 100 mM KCl, 20 mM HEPES pH 7.5, 25 °C, no effector, Hill coefficient 1.88 ± 0.10"}, "[6]": {"system": "Nc1ncnc2c1ncn2[C@@H]1O[C@H](COP(=O)(O)OP(=O)(O)O)[C@@H](O)[C@H]1O", "assay": "purified protein", "conditions": "3 mM PEP, 10 mM MgCl2, 100 mM KCl, 20 mM HEPES pH 7.5, 25 °C, Hill coefficient 1.47 ± 0.07"}, "[7]": {"biological_target": "the molecule itself", "assay": "crystal structure; X-ray crystal structures of SpPYK in six states (apo, oxalate, oxalate/FBP, FBP, PEP, PEP/FBP); vapor diffusion at 25 °C, 15 to 20 mg/ml protein in 20 mM HEPES pH 7.5, 150 mM NaCl, for the ligand-bound forms with 100 mM KCl, 20 mM MgCl2 and 5-20 mM ligand(s); protomers of the tetramer"}}, "data": [{"molecule": "O=P(O)(O)OC[C@H]1OC(O)(COP(=O)(O)O)[C@@H](O)[C@@H]1O", "note": "(stereo partly shown) [FBP, fructose 1,6-bisphosphate]", "values": [{"measurement": "X-ray crystal structure (FBP, PEP/FBP at 1.8 Å, oxalate/FBP)", "setting": "[1]", "value": "FBP is found at the effector binding site in the C domain"}]}, {"molecule": "O=P(O)(O)OC[C@H]1OC(O)[C@H](O)[C@@H](O)[C@@H]1O", "note": "(stereo partly shown) [G6P, glucose 6-phosphate]", "values": [{"measurement": "lactate dehydrogenase coupled assay, NADH absorbance at 340 nm", "setting": "[2]", "value": "only a modest activation effect was observed upon G6P addition"}]}, {"molecule": "C=C(OP(=O)(O)O)C(=O)O", "note": "[PEP, phosphoenolpyruvate]", "values": [{"measurement": "X-ray crystal structure (PEP; PEP/FBP at 1.8 Å)", "setting": "[3]", "value": "The bound PEP or oxalate is seen in the catalytic site"}]}, {"molecule": "O=C(O)C(=O)O", "note": "[oxalate]", "values": [{"measurement": "X-ray crystal structure (oxalate; oxalate/FBP)", "setting": "[4]", "value": "The bound PEP or oxalate is seen in the catalytic site"}]}, {"molecule": "SpPYK (Streptococcus pneumoniae R6)", "values": [{"measurement": "K0.5", "setting": "[5]", "value": "1.36 ± 0.06", "unit": "mM"}, {"measurement": "K0.5", "setting": "[6]", "value": "1.09 ± 0.06", "unit": "mM"}]}, {"molecule": "Streptococcus pneumoniae pyruvate kinase (enzyme, pyruvate kinase (PYK) of Streptococcus pneumoniae, wild type; the strain of the cloned gene and the construct limits are told only in the Supporting information; Homotetramer in the crystal structures; also called SpPYK; PYK) MNKRVKIVATLGPAVEIRGGKKFGEDGYWGEKLDVEASAKNIAKLIEAGANTFRFNFSHGDHQEQGERMATVKLAEKIAGKKVGFLLDTKGPEIRTELFEGEAKEYSYKTGEKIRVATKQGIKSTREVIALNVAGALDIYDDVEVGRQVLVDDGKLGLRVVAKDDATREFEVEVENDGIIAKQKGVNIPNTKIPFPALAERDNDDIRFGLEQGINFIAISFVRTAKDVNEVRAICEETGNGHVQLFAKIENQQGIDNLDEIIEAADGIMIARGDMGIEVPFEMVPVYQKMIIKKVNAAGKVVITATNMLETMTEKPRATRSEVSDVFNAVIDGTDATMLSGESANGKYPLESVTTMATIDKNAQALLNEYGRLDSDSFERNSKTEVMASAVKDATSSMDIKLVVTLTKTGHTARLISKYRPNADILALTFDELTERGLMLNWGVIPMLTDAPSSTDDMFEIAERKAVEAGLVESGDDIVIVAGVPVGEAVRTNTMRIRTVR", "values": [{"measurement": "stoichiometry N", "setting": "[7]", "value": 4}]}]}
